These results are taken from patent publication US8609653B2, “Azaindole compounds and methods for treating HIV” (priority 2011, dated 2013).

The structures appear in SMILES notation. Counter-ions that a name gives are not always drawn.

One experiment deals with HIV. Kind of experiment: MT4 assay: antiviral HIV activity in MT-4 cells. The class given is cell-based. The note with it: HTLV-1 transformed cell line MT-4; read-out 96 hours later with cell titer glo; 10 point dose response; trifluoroacetic acid salt; read-out: HIV MT4 Assay IC50. Summed up:
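Compounds tested in HTLV-1-transformed MT-4 cells for protection from HIV, with cytotoxicity run in parallel under the same conditions; CellTiter-Glo luminescence read 96 h later. IC50 from 10-point, 3–4-fold serial dilutions spanning >1000-fold, % inhibition relative to no-compound control, fitted by four-parameter logistic.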
For `Cc1nc2c(ccn2Cc2ccc(F)c(F)c2)c(-c2ccc3c(c2C)NCCO3)c1[C@H](OC(C)(C)C)C(=O)O` (atropisomer, axis not shown; (P)) [Example 100, (2S)(P)-2-(tert-butoxy)-2-(1-(3,4-difluorobenzyl)-6-methyl-4-(5-methyl-3,4-dihydro-2H-benzo[b][1,4]oxazin-6-yl)-1H-pyrrolo[2,3-b]pyridin-5-yl)acetic acid, trifluoroacetic acid salt], the IC50 is 0.1 µM.

The same experiment, now with this note: Human immunodeficiency virus 1, MT4, 96 h, read-out: HIV MT4 Assay IC50 (μM), HTLV-1 transformed cell line MT-4; read-out 96 hours later with cell titer glo; 10 point dose response.
With `Cc1nc2c(ccn2Cc2ccc(F)c(F)c2)c(-c2ccc3c(c2)CCCO3)c1C(OC(C)(C)C)C(=O)O` (stereo not drawn) [Example 11, 2-(tert-butoxy)-2-(4-(chroman-6-yl)-1-(3,4-difluorobenzyl)-6-methyl-1H-pyrrolo[2,3-b]pyridin-5-yl)acetic acid], the IC50 was found to be 0.09 µM.

Regarding `Cc1nc2c(ccn2Cc2cc(F)c(F)c(F)c2)c(-c2ccc3c(c2)CCCO3)c1C(OC(C)(C)C)C(=O)O` (stereo not drawn) [Example 32, 2-(tert-butoxy)-2-(4-(chroman-6-yl)-6-methyl-1-(3,4,5-trifluorobenzyl)-1H-pyrrolo[2,3-b]pyridin-5-yl)acetic acid], the IC50 turned out to be 0.1 µM.

For `Cc1ccc(-c2c(C(OC(C)(C)C)C(=O)O)c(C)nc3c2ccn3Cc2ccc(Cl)cc2F)cc1` (stereo not drawn) [Example 23, 2-(tert-butoxy)-2-(1-(4-chloro-2-fluorobenzyl)-6-methyl-4-(p-tolyl)-1H-pyrrolo[2,3-b]pyridin-5-yl)acetic acid], the IC50 turned out to be 0.27 µM.

Take `Cc1ccc(-c2c(C(OC(C)(C)C)C(=O)O)c(C)nc3c2ccn3Cc2ccc(F)cc2)c(F)c1` (stereo not drawn) [Example 93, 2-(tert-Butoxy)-2-(4-(2-fluoro-4-methylphenyl)-1-(4-fluorobenzyl)-6-methyl-1H-pyrrolo[2,3-b]pyridin-5-yl)acetic acid]: the IC50 amounted to 0.046 µM.

Take `Cc1ccc(-c2c(C(OC(C)(C)C)C(=O)O)c(C)nc3c2ccn3Cc2ccc(F)c(F)c2)cc1` (stereo not drawn) [Example 5, 2-(tert-butoxy)-2-(1-(3,4-difluorobenzyl)-6-methyl-4-(p-tolyl)-1H-pyrrolo[2,3-b]pyridin-5-yl)acetic acid]: the IC50 was found to be 0.2 µM.

Consider `Cc1nc2c(ccn2Cc2ccc(F)cc2)c(-c2ccc3c(c2)CCCO3)c1C(OC(C)(C)C)C(=O)O` (stereo not drawn) [Example 27, 2-(tert-butoxy)-2-(4-(chroman-6-yl)-1-(4-fluorobenzyl)-6-methyl-1H-pyrrolo[2,3-b]pyridin-5-yl)acetic acid], for which the IC50 was 0.08 µM.

In the case of `Cc1nc2c(ccn2Cc2cccc(F)c2F)c(-c2cc(F)c3c(c2C)NCCO3)c1[C@H](OC(C)(C)C)C(=O)O` (atropisomer, axis not shown; (M)) [Example 132], the IC50 worked out at 0.021 µM.

Turning to `COc1ccc(Cn2ccc3c(-c4ccc5c(c4)CCCO5)c(C(OC(C)(C)C)C(=O)O)c(C)nc32)cc1` (stereo not drawn) [Example 38, 2-(tert-butoxy)-2-(4-(chroman-6-yl)-1-(4-methoxybenzyl)-6-methyl-1H-pyrrolo[2,3-b]pyridin-5-yl)acetic acid], the IC50 was found to be 0.12 µM.

With `COc1ccc(-c2c([C@H](OC(C)(C)C)C(=O)O)c(C)nc3c2ccn3Cc2ccc(F)c(F)c2)cc1C` [Example 103, (S)-2-(tert-Butoxy)-2-(1-(3,4-difluorobenzyl)-4-(4-methoxy-3-methylphenyl)-6-methyl-1H-pyrrolo[2,3-b]pyridin-5-yl)acetic acid], the IC50 was found to be 0.81 µM.

Consider `Cc1nc2c(ccn2C)c(-c2cc(F)c3c(c2C)CCCO3)c1[C@H](OC(C)(C)C)C(=O)O` (atropisomer, axis not shown; (M)) [Example 131, (2S)(M)-2-(tert-butoxy)-2-(4-(8-fluoro-5-methylchroman-6-yl)-1,6-dimethyl-1H-pyrrolo[2,3-b]pyridin-5-yl)acetic acid, Trifluoroacetic acid salt], for which the IC50 was determined as 0.055 µM.

Consider `COc1cccc(Cn2ccc3c(-c4ccc5c(c4)CCCO5)c(C(OC(C)(C)C)C(=O)O)c(C)nc32)c1` (stereo not drawn) [Example 61, 2-(tert-butoxy)-2-(4-(chroman-6-yl)-1-(3-methoxybenzyl)-6-methyl-1H-pyrrolo[2,3-b]pyridin-5-yl)acetic acid], for which the IC50 was 0.41 µM.

`Cc1nc2c(ccn2Cc2cccc(F)c2F)c(-c2ccc3c(c2)CCCO3)c1[C@H](OC(C)(C)C)C(=O)O` [Example 57, (S)-2-(tert-butoxy)-2-(4-(chroman-6-yl)-1-(2,3-difluorobenzyl)-6-methyl-1H-pyrrolo[2,3-b]pyridin-5-yl)acetic acid]: the IC50 was determined as 0.027 µM.

For the compound `Cc1nc2c(ccn2Cc2ccc(F)c(F)c2)c(-c2cc(F)c3c(c2C)CCCO3)c1[C@H](OC(C)(C)C)C(=O)O` (atropisomer, axis not shown; (M)) [Example 96, (2S)(M)-2-(tert-butoxy)-2-(1-(3,4-difluorobenzyl)-4-(8-fluoro-5-methylchroman-6-yl)-6-methyl-1H-pyrrolo[2,3-b]pyridin-5-yl)acetic acid], the IC50 was 0.006 µM.

In the case of `COc1ccc(Cn2ccc3c(-c4ccc5c(c4)CCCO5)c(C(OC(C)(C)C)C(=O)O)c(C)nc32)cc1C(F)(F)F` (stereo not drawn) [Example 52, 2-(tert-butoxy)-2-(4-(chroman-6-yl)-1-(4-methoxy-3-(trifluoromethyl)benzyl)-6-methyl-1H-pyrrolo[2,3-b]pyridin-5-yl)acetic acid], the IC50 came out at 0.37 µM.

As to `Cc1ccc(-c2c([C@@H](OC(C)(C)C)C(=O)O)c(C)nc3c2ccn3[C@H](C)c2ccc(F)cc2)cc1` [Example 14, (R)-2-(tert-butoxy)-2-(1-((R)-1-(4-fluorophenyl)ethyl)-6-methyl-4-(p-tolyl)-1H-pyrrolo[2,3-b]pyridin-5-yl)acetic acid], the IC50 was 0.71 µM.

`Cc1ccc(-c2c(C(OC(C)(C)C)C(=O)O)c(C)nc3c2ccn3Cc2cc(Cl)ccc2F)cc1` (stereo not drawn) [Example 20, 2-(tert-butoxy)-2-(1-(5-chloro-2-fluorobenzyl)-6-methyl-4-(p-tolyl)-1H-pyrrolo[2,3-b]pyridin-5-yl)acetic acid]: the IC50 was determined as 0.23 µM.

Take `Cc1nc2c(c(-c3ccc4c(c3C)NCCO4)c1[C@H](OC(C)(C)C)C(=O)O)CCN2Cc1cccc(F)c1F` (atropisomer, axis not shown; (M)) [Example 118, (2S)(M)-2-(tert-butoxy)-2-(1-(2,3-difluorobenzyl)-6-methyl-4-(5-methyl-3,4-dihydro-2H-benzo[b][1,4]oxazin-6-yl)-2,3-dihydro-1H-pyrrolo[2,3-b]pyridin-5-yl)acetic acid, trifluoroacetic acid salt]: the half-maximal inhibitory concentration (IC50) was 0.14 µM.

Turning to `Cc1ccc(-c2c(C(OC(C)(C)C)C(=O)O)c(C)nc3c2ccn3Cc2ccc(F)c(C)c2)cc1` (stereo not drawn) [Example 25, 2-(tert-butoxy)-2-(1-(4-fluoro-3-methylbenzyl)-6-methyl-4-(p-tolyl)-1H-pyrrolo[2,3-b]pyridin-5-yl)acetic acid], the IC50 was determined as 0.14 µM.

Turning to `COc1cccc(F)c1Cn1ccc2c(-c3ccc4c(c3)CCCO4)c(C(OC(C)(C)C)C(=O)O)c(C)nc21` (stereo not drawn) [Example 55, 2-(tert-butoxy)-2-(4-(chroman-6-yl)-1-(2-fluoro-6-methoxybenzyl)-6-methyl-1H-pyrrolo[2,3-b]pyridin-5-yl)acetic acid], the 50% inhibitory concentration (IC50) is 0.021 µM.

As for `Cc1ccc(-c2c(C(OC(C)(C)C)C(=O)O)c(C)nc3c2ccn3Cc2cc(F)cc(F)c2)cc1` (stereo not drawn) [Example 78, 2-(tert-Butoxy)-2-(1-(3,5-difluorobenzyl)-6-methyl-4-(p-tolyl)-1H-pyrrolo[2,3-b]pyridin-5-yl)acetic acid], the IC50 was 0.35 µM.

As to `Cc1ccc(-c2c(C(OC(C)(C)C)C(=O)O)c(C)nc3c2ccn3Cc2ccc3c(c2)OCO3)cc1` (stereo not drawn) [Example 80, 2-(1-(Benzo[d][1,3]dioxol-5-ylmethyl)-6-methyl-4-(p-tolyl)-1H-pyrrolo[2,3-b]pyridin-5-yl)-2-(tert-butoxy)acetic acid], the IC50 came to 0.8 µM.

As for `Cc1nc2c(ccn2Cc2ccc(F)c(F)c2)c(-c2ccc(Cl)c(F)c2)c1[C@H](OC(C)(C)C)C(=O)O` [Example 106, (S)-2-(tert-Butoxy)-2-(4-(4-chloro-3-fluorophenyl)-1-(3,4-difluorobenzyl)-6-methyl-1H-pyrrolo[2,3-b]pyridin-5-yl)acetic acid], the IC50 worked out at 0.1 µM.

As to `Cc1nc2c(ccn2Cc2cccc(F)c2F)c(-c2ccc3c(c2C)NCCO3)c1[C@H](OC(C)(C)C)C(=O)O` (atropisomer, axis not shown; (M)) [Example 104, (S)-2-(tert-Butoxy)-2-((M)-1-(2,3-difluorobenzyl)-6-methyl-4-(5-methyl-3,4-dihydro-2H-benzo[b][1,4]oxazin-6-yl)-1H-pyrrolo[2,3-b]pyridin-5-yl)acetic acid], the IC50 worked out at 0.013 µM.

Take `Cc1nc2c(ccn2Cc2c(Cl)cccc2Cl)c(-c2ccc3c(c2)CCCO3)c1C(OC(C)(C)C)C(=O)O` (stereo not drawn) [Example 50, 2-(tert-butoxy)-2-(4-(chroman-6-yl)-1-(2,6-dichlorobenzyl)-6-methyl-1H-pyrrolo[2,3-b]pyridin-5-yl)acetic acid]: the IC50 was found to be 0.035 µM.

As for `Cc1ccc(-c2c(C(OC(C)(C)C)C(=O)O)c(C)nc3c2ccn3Cc2ccc(C(F)(F)F)cc2)cc1` (stereo not drawn) [Example 63, 2-(tert-butoxy)-2-(6-methyl-4-(p-tolyl)-1-(4-(trifluoromethyl)benzyl)-1H-pyrrolo[2,3-b]pyridin-5-yl)acetic acid], the half-maximal inhibitory concentration (IC50) is 3.96 µM.

The same experiment, now with this note: read-out: HIV MT4 Assay IC50; HTLV-1 transformed cell line MT-4; read-out 96 hours later with cell titer glo; 10 point dose response; Trifluoroacetic acid salt.
As for `Cc1nc2c(c3c(n2C)CCCC3)c(-c2ccc3c(c2C)NCCO3)c1[C@H](OC(C)(C)C)C(=O)O` (atropisomer, axis not shown; (P)) [Example 129, (2S)(P)-2-(tert-butoxy)-2-(2,9-dimethyl-4-(5-methyl-3,4-dihydro-2H-benzo[b][1,4]oxazin-6-yl)-6,7,8,9-tetrahydro-5H-pyrido[2,3-b]indol-3-yl)acetic acid, Trifluoroacetic acid salt], the IC50 is 1 µM.

As a reminder, the IC50 is the concentration needed to halve the response being measured.
